This is an account of results in paper PMC6433934, “Preclinical Evaluation of Bispecific Adaptor Molecule Controlled Folate Receptor CAR-T Cell Therapy With Special Focus on Pediatric Malignancies” (Frontiers in Oncology, 2019).

Molecules are shown by their SMILES.

The subject of one assay is E2-CAR-T cells. Description: 3H-EC17 radioligand binding to effector cells. Also noted: species or system human. As to conditions: ^3H-EC17, E2-CAR-T cells ~100% EGFRt+, 1:1 CD8/CD4, 1.5 h room temperature, estimated from specific binding curve. As for the experimental part: The bispecific affinities of EC17 CAM were assessed using ^3H-EC17 in cell-based radioligand binding assays. For binding to FR+ targets, KB and CHO-β cells were pre-seeded overnight in 24-well tissue culture plates and incubated with 0.1, 0.5, 1, 5, 10, 20, and 40 nM of ^3H-EC17 in FFRPMI for 2 h at 37°C. Afterwards, the cells were rinsed with phosphate-buffered saline (PBS, pH 7.4) and lysed with 1% sodium dodecyl sulfate. The whole cell lysates were quantitated for the level of radioactivity and cellular protein content by standard Pierce BCA protein assay. The number of ^3H-EC17 molecules bound per cell was calculated to determine the dissociation constants (Kd) for FRα (KB) and FRβ (CHO-β), respectively. […] Afterwards, the cells were washed 4x with PBS, lysed with 0.1% Triton X-100 plus 0.1 N NaOH and counted in a scintillation counter. The specific binding curve was generated by subtracting non-specific binding (^3H-EC17 plus “cold” EC17) from total binding (^3H-EC17) at each concentration of the radioligand.

In a further assay the test system is HOS-FRα. Kind of assay: EC17 dose response, co-culture with E2-CAR-T cells, LDH specific lysis. It is filed as cell-based, human. The source says:
(§1) To investigate EC17 CAM action in vitro, pure EGFRt-sorted CD4 and CD8 CAR-T cells were admixed in a 1:1 ratio and matching mock-transduced T cells were included per experimental design. Other than FR+/- isogenic pairs of AML and osteosarcoma cell lines, we added KB, MDA-MB-231 and OV90 to represent different histological tumor types and FR expression levels. All FR+ target cell lines were subjected to a direct ^3H-FA binding assay to quantitate the number of FR molecules bound/cell ([38]). Prior to co-culture experiments, cryopreserved CAR-T cells were allowed to recover for 2–3 days in T cell culture medium. All effector and target cells were pre-washed with FFRPMI to remove any exogenous FA that could compete against EC17. Short-term co-culture studies of ≤ 3 days were carried out in FFRPMI without adding any exogenous cytokines.
(§2) For an EC17 dose response study, FR+ cancer cell lines (KB, MDA-MB-231, HOS-FRα, THP1-FRβ, OV90) were co-cultured with EGFRt-sorted E2-CAR-T cells at an effector-to-target (E/T) ratio of 1:1 in the presence of EC17 ranging from 0.1 pM to 100 μM in 10-fold increments. After 24 h of co-culture, supernatants were harvested to determine target cell killing by Promega's CytoTox 96® LDH assay kit and expressed as specific lysis (%) normalized to basal levels in the absence of EC17. To study the kinetics of T cell activation and FR correlation in vitro, co-cultures were carried out in FR+/- cell lines at varying E/T ratios (1:27, 1:9, 1:3, 1:1, 3:1) in the continuous presence of 10 nM EC17. The kinetics of target cell killing (i.e., % specific lysis) were quantified after 16 and 48 h of co-culture and normalized to basal levels in the absence of EC17 at defined E/T ratios. Meanwhile, a portion of the supernatants was taken after 44 h of co-culture for measurement of IFNγ, IL-2, and TNFα. The LEGENDplex™ human Th1 cytokine panel (BioLegend, San Diego, CA) was used to determine CAR-T cell derived cytokines.

The next assay has as its system KB. The assay is described as above. It is filed as cell-based, human. Conditions: E/T 1:1, 24 h co-culture.
Excerpt: as §1, §2

The next assay concerns MDA-MB-231. The description is as above. The format is cell-based, human. As to conditions: MDA-MB-231, E/T 1:1, 24 h co-culture.
Excerpt: as §1, §2

A further assay relates to THP1-FRβ. The assay is described as above. It is filed as cell-based, human.
Excerpt: as §1, §2

The next assay deals with HOS-143b. Kind of assay: Kinetics of specific lysis at varying E/T ratios, 10 nM EC17. It is filed as cell-based, human. As to conditions: 10 nM EC17, E2-CAR-T cells, E/T 1:27 to 3:1, 16 and 48 h. As for the experimental part: as §2
The mark [1] stands for this setting: Homo sapiens, EC17, E/T 1:1, 24 h co-culture, curve fitted up to 100 nM.
The mark [2] stands for this setting: Homo sapiens, curve fitted up to 100 nM.

By Kd is commonly meant a measure of binding affinity in units of concentration. By EC50 is commonly meant the concentration needed to bring the measured effect to its halfway point. Read a high EC50 as a need for much substance. In the case of `Nc1nc2ncc(CNc3ccc(C(=O)NC(CCC(=O)NCCNC(=S)Nc4ccc(-c5c6ccc(=O)cc-6oc6cc(O)ccc56)c(C(=O)O)c4)C(=O)O)cc3)nc2c(=O)[nH]1` (stereo not shown) [EC17, FA-(γ)-ethylenediamine-FITC], in the assay on E2-CAR-T cells, the Kd was approximately 142 nM. In addition, the Max. lysis in the assay with HOS-FRα (E/T 1:1, 24 h co-culture) amounted to 18%; in the assay with KB it was 11%; in the assay on MDA-MB-231 it was 45%; in the assay on THP1-FRβ (E/T 1:1, 24 h co-culture), 27%. The EC50 with HOS-FRα (setting [1]) was 0.03 nM; in the assay with KB (setting [2]), 5.3 pM; with MDA-MB-231 (setting [2]) it was 4.5 pM; with THP1-FRβ (setting [1]), 0.015 nM. Further, in the assay on HOS-143b, the “specific lysis of FR-negative cells” value is on record as “essentially unharmed”.
